Test results: US20230331780A1, “COMPOSITIONS AND METHODS FOR THE TREATMENT OF ALZHEIMER'S DISEASE” (The Trustees of Columbia University in the City of New York, priority 2020, published 2023)

What was measured:
CD45 phosphatase = target: T1, CD45 phosphatase (Homo sapiens, UniProt P08575); assay: CD45 phosphatase activity in THP1 cells; assay type: cell-based; settings: peptide added to THP1 cells; FIG. 2
T1 construct: endogenous in cells; host or cells: THP1 cells
T1 sequence (P08575 26-1306): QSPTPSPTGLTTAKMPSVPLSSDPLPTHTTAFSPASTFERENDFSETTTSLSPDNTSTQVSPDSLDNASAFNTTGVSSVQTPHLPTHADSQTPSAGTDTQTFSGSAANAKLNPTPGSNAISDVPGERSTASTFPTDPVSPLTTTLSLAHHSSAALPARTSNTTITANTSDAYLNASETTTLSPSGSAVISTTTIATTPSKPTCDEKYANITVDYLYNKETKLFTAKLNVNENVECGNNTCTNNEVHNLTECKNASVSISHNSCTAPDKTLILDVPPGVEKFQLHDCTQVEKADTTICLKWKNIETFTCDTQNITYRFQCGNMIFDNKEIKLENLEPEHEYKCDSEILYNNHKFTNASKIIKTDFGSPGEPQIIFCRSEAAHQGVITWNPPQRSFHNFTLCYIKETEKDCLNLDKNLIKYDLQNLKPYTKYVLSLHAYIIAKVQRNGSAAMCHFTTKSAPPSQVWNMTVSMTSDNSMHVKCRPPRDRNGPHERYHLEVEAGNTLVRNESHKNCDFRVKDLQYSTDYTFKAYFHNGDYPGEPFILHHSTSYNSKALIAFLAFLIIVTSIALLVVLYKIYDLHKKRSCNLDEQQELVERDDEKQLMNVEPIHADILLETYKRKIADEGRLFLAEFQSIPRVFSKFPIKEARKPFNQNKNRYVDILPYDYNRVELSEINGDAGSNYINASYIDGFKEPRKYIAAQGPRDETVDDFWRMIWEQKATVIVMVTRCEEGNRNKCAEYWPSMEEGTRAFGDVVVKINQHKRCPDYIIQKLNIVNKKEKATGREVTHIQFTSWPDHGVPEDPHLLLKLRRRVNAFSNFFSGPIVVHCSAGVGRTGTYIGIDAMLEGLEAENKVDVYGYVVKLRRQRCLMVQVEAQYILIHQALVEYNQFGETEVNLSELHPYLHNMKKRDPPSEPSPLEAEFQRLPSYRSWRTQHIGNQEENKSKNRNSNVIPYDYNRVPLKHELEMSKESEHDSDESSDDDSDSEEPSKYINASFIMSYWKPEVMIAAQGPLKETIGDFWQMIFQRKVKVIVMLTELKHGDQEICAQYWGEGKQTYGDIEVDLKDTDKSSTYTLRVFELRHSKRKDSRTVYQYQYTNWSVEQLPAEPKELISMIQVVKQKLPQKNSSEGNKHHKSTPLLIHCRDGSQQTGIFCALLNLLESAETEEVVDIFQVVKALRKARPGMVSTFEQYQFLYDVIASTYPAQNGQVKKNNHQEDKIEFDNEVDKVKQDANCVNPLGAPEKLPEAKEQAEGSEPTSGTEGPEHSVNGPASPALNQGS

[1] = tested on: exogenous Amyloid-beta 1-42 in mouse brain; assay: exogenous amyloid-beta 1-42 clearance in mouse brain, peptide delivered subcutaneously; assay type: in vivo; settings: peptide subcutaneous via pump, A-beta ICV, 28 days, confocal microscopy, FIG. 4
Procedure: Hippocampus areas are shown of the three treated mice (FIG. 3A). Quantification of Amyloid-beta 1-42 in the hippocampus from the three mouse groups are shown with a marked decrease of Amyloid-beta 1-42 in mice that received Peptide #1 but not those that were treated with Peptide #4 (FIG. 3B). […] The fluorescent labelled A-beta (red) was directly administered to the brain via a mini osmotic pump implanted subcutaneously and connected to the brain ventricles through a catheter for continuous drug delivery. The peptide (SEQ ID NO: 1) was delivered subcutaneously via another pump. By the end of the treatment (28 days), brain sections were analyzed by confocal microscope.

[2] = tested on: endogenous Amyloid-beta 1-42 in 5×FAD mice; assay: endogenous amyloid-beta 1-42 in brains of 5×FAD mice; assay type: in vivo, mouse; settings: ICV via osmotic mini pump, 28 days, versus vehicle, FIG. 5A/5B
Description: Fourth, by leveraging a second in vivo model of microglia-mediated amyloid uptake in the mouse brain, and using osmotic mini pumps implanted subcutaneously to deliver the peptide through a catheter connected to the brain ventricles, it was shown that the inhibitory peptide SEQ ID NO:1 (peptide #1) reduces the amount of endogenous amyloid-beta 1-42 detectable in the brains of 5×FAD animals (FIG. 5A and FIG. 5B). 5×FAD mice express human APP and PSEN1 transgenes that include five AD-linked mutations. These mice recapitulate many AD-related phenotypes and have a relatively early and aggressive presentation. Amyloid plaques, accompanied by gliosis, are seen in mice as young as two months of age. Neuron loss occurs in multiple brain regions, beginning at about 6 months in the areas with the most pronounced amyloidosis. Mice display a range of cognitive and motor deficits.
Peptide was directly administered to the brain via a mini osmotic pump implanted subcutaneously and connected to the brain ventricles through a catheter for continuous drug delivery. By the end of the treatment (28 days), brain sections were generated and analyzed by confocal microscope. A representative image from an animal in each of the three groups is shown (FIG. 5A). Quantification of E610 immunoreactivity in the hippocampus, reflective Amyloid-beta 1-42 levels, from the three mouse groups is shown.

[3] = target: T2, interaction between CD33 and CD45 (Homo sapiens, UniProt P08575); assay: proximity ligation assay of CD33-CD45 interaction in THP1 cells; assay type: cell-based; settings: human myeloid cell line THP1; peptide 0-0.1 mM; FIG. 1
T2 construct: in the human myeloid cell line THP1 using the proximity ligation assay; endogenous in cells; host or cells: THP1 (human myeloid cell line)
T2 sequence (P08575 26-1306): T1 sequence (P08575 26-1306)
Description: To test if the binding interaction between CD33 and any of its ligands is involved in AD pathogenesis, a 12-mer peptide (RMESKTEKWMER; SEQ ID NO: 1) was designed based on the structure of the sialic-acid binding domain of siglecs (Sialic acid-binding immunoglobulin-type lectins).

[4] = tested on: NeuN positive neurons in Layer 5 of the piriform cortex; assay: neuronal survival in 5×FAD mice given exogenous Amyloid-beta 1-42; assay type: in vivo, mouse; settings: 5×FAD mice treated with exogenous Amyloid-beta 1-42; ICV via osmotic mini pump, 28 days; FIG. 6
Description: Fifth, in a modified version of this second in vivo model of Alzheimer's Disease, and using osmotic mini pumps implanted subcutaneously to deliver the peptide through a catheter connected to the brain ventricles, it was shown that the inhibitory peptide SEQ ID NO:1 (peptide #1) reduces neuronal loss in transgenic 5×FAD animals treated with exogenous Amyloid-beta 1-42 (FIG. 6). […] Peptide was directly administered to the brain via a mini osmotic pump implanted subcutaneously and connected to the brain ventricles through a catheter for continuous drug delivery. By the end of the treatment (28 days), brain sections were generated and analyzed by confocal microscope. Quantification of NeuN immunoreactivity in Layer 5 of the piriform cortex, reflective of neuronal number, from the three mouse groups is shown.

[5] = tested on: exogenous Amyloid-beta 1-42 in mouse brain; assay: exogenous amyloid-beta 1-42 clearance in mouse brain, peptide delivered to brain ventricles by osmotic mini pump; assay type: in vivo; settings: ICV via osmotic mini pump, 10 uM solution, approx. 3 ug/kg daily, 28 days, Amyloid-beta 647, confocal microscopy, FIG. 3A/3B
Procedure: Third, by leveraging an in vivo model of microglia-mediated amyloid uptake in the mouse brain, and using osmotic mini pumps implanted subcutaneously to deliver the peptide through a catheter connected to the brain ventricles, it was shown that the inhibitory peptide SEQ ID NO:1 (peptide #1) reduces the amount of exogenous amyloid-beta 1-42 detectable in the brains of animals (FIG. 3A and FIG. 3B). 10 uM peptide solutions, containing SEQ ID NO: 1 (peptide #1) or SEQ ID NO: 2 (peptide #4), were added to osmotic mini pumps to permit daily delivery of approximately 5 ul of dosing solution or 3 ug/kg of peptide. A fluorescently labelled analog of amyloid beta 1-42 (Amyloid-beta 647) was delivered via ICV infusion. Confocal microscopy was later used to quantify signal in hippocampal sections. […] By the end of the treatment (28 days), brain sections were performed and analyzed by confocal microscope.
Hippocampus areas are shown of the three treated mice (FIG. 3A). Quantification of Amyloid-beta 1-42 in the hippocampus from the three mouse groups are shown with a marked decrease of Amyloid-beta 1-42 in mice that received Peptide #1 but not those that were treated with Peptide #4 (FIG. 3B). […] By the end of the treatment (28 days), brain sections were analyzed by confocal microscope.

| Sequence | CD45 phosphatase activity (CD45 phosphatase) | amount of exogenous Amyloid-beta 1-42 in brain parenchyma [1] | amount of endogenous Amyloid-beta 1-42 (E610 immunoreactivity in hippocampus) [2] | interaction between CD33 and CD45 (proximity ligation assay) [3] | neuronal survival (NeuN immunoreactivity in Layer 5 of the piriform cortex) [4] | amount of exogenous Amyloid-beta 1-42 in hippocampus [5] |
| --- | --- | --- | --- | --- | --- | --- |
| MESKTEKWMERI [SEQ ID NO: 2, reference compound] | does not | – | – | – | – | – |
| RMESKTEKWMER [SEQ ID NO: 1] | leads to an increase in CD45 phosphatase activity | decreases the amount of exogenous Amyloid-beta 1-42 in brain | decreases the amount of endogenous Amyloid-beta 1-42 in vivo | reduces the interaction between CD33 and CD45 | increased neuronal survival in vivo | decreases the amount of exogenous Amyloid-beta 1-42 in vivo |
